Results taken from PMC8877061, “Antifungal and Antibiofilm Activity of Cyclic Temporin L Peptide Analogues against Albicans and Non-Albicans Candida Species” (Pharmaceutics, 2022).
Values joined by “and” are separate entries in the source; they are usually repeats but may differ in a detail not shown here. Equal values may be shown once. Positions of bridges follow the written chain, without caps; N, C: chain ends. Non-standard residues stand in square brackets, D forms with d. Residues, ends and D or L forms follow the SMILES beside them. Triazole bridges read from a SMILES are 1,4-linked. Lys(N3) = [N-]=[N+]=NCCCC[C@H](N)C(=O)O; Pra = C#CC[C@H](N)C(=O)O

How the values were obtained:
[1] = system: G. mellonella larvae infected by different Candida species; experiment: G. mellonella fungal infection model (Kaplan-Meier survival); type: in vivo; conditions: for in vivo effectiveness on infected G. mellonella larvae: 10^6 yeast cells with 12.5 μM peptide, 10 μL injected, 37 °C, different Candida species
Procedure: The G. mellonella fungal infection model was performed as described previously. We first determined the lethal concentrations of C. albicans, C. auris, C. glabrata, C. tropicalis and C. parapsilosis inocula by injecting concentrations of 10^4, 10^5 or 10^6 cells/larvae. The larvae were kept in Petri dishes at 37 °C, and survival was monitored for 3 d. A system of scoring already proposed by Loh et al. based on survival, mobility, degree of melanization, and the ability to produce a cocoon was used to evaluate the physical state of the larvae for 3 days. To evaluate the effects of the five peptides on Candida infection and compare mortality, 10 μL of 10^6 yeast cells in a medium containing 12.5 μM of each peptide’s concentrations was injected into the last left proleg of the larvae and incubated at 37 °C. The larvae were incubated at 37 °C and monitored daily for survival.

[2] = system: S. typhimurium strain TA100; type: cell-based; conditions: 12.5 µM, TA100 without S9, 37 °C, 5 days, duplicate; MR ≥2 = mutagenic
Procedure: The fluctuation Ames test was performed according to the manufacturer’s protocol provided for the Muta-ChromoPlate Bacterial Strain Kit (EBPI, Canada) and according to OECD Guideline 471 (OECD Guidelines for the Testing of Chemicals, Section 4, Test No. 471: Bacterial Reverse Mutation Test). S. typhimurium strain TA100 was used to assess the bacterial reverse mutation from amino acid (histidine) auxotrophy to prototrophy after exposure to mutagens. The overnight TA100 cultures were exposed to each peptide at a 12.5-µM concentration in the presence of bromocresol purple and then dispensed into 96-well microtiter plates. The plates were incubated at 37 °C for 5 days. After this period, the number of positive colonies was counted and statistically compared with the number of positive colonies in the blank wells to identify the spontaneous mutation rate. The negative control was distilled water, while the positive control was sodium azide for TA100 without S9. All experiments were conducted in duplicate. The results were expressed as the mutagenicity ratio (MR) and were obtained by dividing the number of reverse mutation colonies by the spontaneous mutation rate. When the MR was ≥2, the sample was judged to be mutagenic.

[3] = ANTS/DPX leakage, eukaryotic membrane-like LUVs; conditions: peptide 50 μM, Chol/DOPC LUVs 0.1 mM lipid, PBS pH 7.2, 10 min, fluorescence 385/512 nm
Procedure: ANTS/DPX-entrapped large unilamellar vesicles (LUVs) composed of PE/PC/PI/Ergosterol (5:4:1:2, w/w/w/w) and Chol/DOPC (70:30, ratio in moles) were prepared by the extrusion method as previously described in [28]. First, the lipid films were prepared by dissolving lipids in the proper ratio in chloroform to have a final concentration of 0.1 mM and then dried under a nitrogen gas stream. The probes of ANTS (12.5 mM) and DPX (45 mM) dissolved in water were added to the lipid films, and the mixture was freeze-dried overnight. The lipid films with encapsulated ANTS and DPX were hydrated with a PBS 1× buffer (pH = 7.2), vortexed for 1 h, freeze-thawed 6 times and extruded 10 times through 0.1-μm pore size polycarbonate filters to obtain the LUVs. The LUVs with entrapped ANTS and DPX were separated from the free ANTS and DPX by gel filtration chromatography on a Sephadex G-50 column (1.5 × 10 cm). The assay was based on the measurement of dequenching of ANTS by DPX when the LUVs were incubated with peptide concentrations of 5, 10, 15, 20, 30 and 50 μM. The increase in ANT fluorescence was recorded at an excitation fluorescence at 385 nm (slit width: 5 nm) and a fluorescence emission at 512 nm (slit width: 5 nm) for 10 min after the addition of the peptide. The destruction of all LUVs and the complete release of ANTs were obtained after treatment with 10% Triton-X. The percentage of liposome leakage was calculated as %leakage = (Fi − F0)/(Ft − F0), where F0 represents the fluorescence of the intact LUVs before the addition of the peptide and Fi and Ft are the intensities of the fluorescence achieved after peptide and Triton-X treatment, respectively.

C. albicans cells = experiment: Zeta potential of fungal cells by dynamic light scattering; type: cell-based; set-up: Calculated Zeta Potential: unit not given here; conditions: for Experimental Zeta Potential (ς): C. albicans cells after peptide 25 μM, PBS 0.001×, electrophoretic light scattering; for Calculated Zeta Potential: theoretical: charge of the peptide added to the zeta potential of the C. albicans cells
Procedure: The zeta potential of the fungal cells was recorded in a suspension (0.5 × 10^6 cells/mL) using the electrophoretic light scattering technique on a Zetasizer Nano ZS analyzer. Before the peptide treatment, the cells were suspended using a 0.05% trypsin solution in 0.53 mM EDTA. The concentration of the suspended cells in a buffered phosphate saline (PBS, 1.7 mM KH2PO4, 5.2 mM Na2HPO4 and 150 mM NaCl) was determined on a hemocytometer. The measurements were performed by diluting the cells with PBS 0.001× and treating them with the peptide at a concentration of 25 μM.

[4] = Critical aggregation concentration with Nile red; type: physicochemical; conditions: aqueous solution, Nile red 500 nM, 1 h, peptide 1-200 μM, emission maximum fitted with Boltzmann sigmoid, triplicate
Procedure: The peptide aggregation in the aqueous solution was monitored using Nile red as a dye probe. Nile red has poor solubility in water, and it has a large tendency to move in a hydrophobic environment as aggregates, showing a blue shift. First, the stock solutions of the peptides were prepared by dissolving them in ethanol, and then different aliquots were taken to prepare the peptide solutions at different concentrations (1, 5, 10, 15, 20, 30, 50, 100 and 200 μM). The ethanol was evaporated under a nitrogen gas stream and then dissolved with sterile water (1.5 mL), sonicated for 15 min and freeze-dried. Then, each peptide solution was hydrated with Nile red solution (C = 500 nM) in the dark place for 1 h before measurement. The emission spectra of Nile red were measured between 570 and 700 nm at a slit width of 5 nm using an excitation wavelength of 550 nm and a 10-nm slit width. The data were repeated in triplicate and analyzed by plotting the maximum emission fluorescence corresponding wavelength (y) as a function of the peptide concentration (x) and fitting with the sigmoidal Boltzmann equation: y=A1−A2/1+e^(x−x0/Δx)+A2
In the equation, A1 and A2 indicate the upper and lower limits of the sigmoid, respectively, x0 is the inflection point of the sigmoid and Δx is the parameter which represents the steepness of the function. The sigmoidal plot allows for calculating the CAC value at x0.

| Structure (SMILES) | survival rate of infected larvae ([1]; 12.5 μM, larvae infected by all strains, after 48 h) | in vivo effectiveness on infected G. mellonella larvae [1] | mutagenicity ratio (MR) [2] | liposome leakage (ANTS release), eukaryotic membrane-like LUVs [3] | Experimental Zeta Potential (ς) (C. albicans cells) [mV] | Calculated Zeta Potential (C. albicans cells) | critical aggregation concentration (CAC) [4] |
| --- | --- | --- | --- | --- | --- | --- | --- |
| CC[C@H](C)[C@H](NC(=O)[C@H](CCCNC(=N)N)NC(=O)[C@@H]1CCC(=O)NCCCC[C@H](NC(=O)[C@H](Cc2ccccc2)NC(=O)[C@H](Cc2c[nH]c3ccccc23)NC(=O)[C@@H]2CCCN2C(=O)[C@@H](NC(=O)[C@@H](N)Cc2ccccc2)C(C)C)C(=O)N[C@@H](CCCCN)C(=O)N[C@@H](Cc2ccccc2)C(=O)N[C@H](CC(C)C)C(=O)N1)C(=O)N[C@@H](CC(C)C)C(N)=O [compound 3] (H-FVPWFKKF[dL]ERIL-NH2; lactam 6-10; N-terminus assumed) | increased the survival rate | in vivo effectiveness | < 2 | ~ 28% | 1.6 ± 0.3 | −3.2 ± 0.5 | 17.3 ± 0.9 µM |
| CC(C)C[C@H](NC(=O)[C@@H]1CCCCn2cc(nn2)C[C@H](NC(=O)[C@H](CCCCN)NC(=O)[C@H](CO)NC(=O)[C@H](Cc2ccccc2)NC(=O)[C@H](Cc2c[nH]c3ccccc23)NC(=O)[C@@H]2CCCN2C(=O)[C@@H](NC(=O)[C@@H](N)Cc2ccccc2)C(C)C)C(=O)N[C@H](CC(C)C)C(=O)NCC(=O)N[C@@H](CCCNC(=N)N)C(=O)N1)C(N)=O [compound 7] (H-FVPWFSK[Pra][dL]GR[Lys(N3)]L-NH2; triazole 8-12; N-terminus assumed) | – | in vivo effectiveness | < 2 | ~ 28% | −4.5 ± 1.6 | −3.2 ± 0.5 | 45.4 ± 0.8 µM |
| CC[C@H](C)[C@H](NC(=O)[C@H](CCCNC(=N)N)NC(=O)[C@@H]1CCCCNC(=O)CC[C@H](NC(=O)[C@H](Cc2ccccc2)NC(=O)[C@H](Cc2c[nH]c3ccccc23)NC(=O)[C@@H]2CCCN2C(=O)[C@@H](NC(=O)[C@@H](N)Cc2ccccc2)C(C)C)C(=O)N[C@@H](CCCCN)C(=O)N[C@@H](Cc2ccccc2)C(=O)N[C@H](CC(C)C)C(=O)N1)C(=O)N[C@@H](CC(C)C)C(N)=O [compound 15] (H-FVPWFEKF[dL]KRIL-NH2; lactam 6-10; N-terminus assumed) | – | in vivo effectiveness | < 2 | – | 13.5 ± 3.4 | −3.2 ± 0.5 | 17 µM and 17.8 ± 0.9 µM |
| CC[C@H](C)[C@H](NC(=O)[C@H](CCCNC(=N)N)NC(=O)[C@@H]1CSSC[C@H](NC(=O)[C@H](Cc2ccccc2)NC(=O)[C@H](Cc2c[nH]c3ccccc23)NC(=O)[C@@H]2CCCN2C(=O)[C@@H](NC(=O)[C@@H](N)Cc2ccccc2)C(C)C)C(=O)N[C@@H](CCCCN)C(=O)N[C@@H](Cc2ccccc2)C(=O)N[C@H](CC(C)C)C(=O)N1)C(=O)N[C@@H](CC(C)C)C(N)=O [compound 16] (H-FVPWFCKF[dL]CRIL-NH2; disulfide 6-10; N-terminus assumed) | – | in vivo effectiveness | < 2 | ~ 28% | −6.5 ± 0.2 | −3.2 ± 0.5 | 42.9 ± 0.7 µM |
